# Assay results from US9597337B2, “Berberine-ursodeoxycholic acid conjugate for treating the liver” (NORTH AMERICAN BIOMEDICAL RESEARCH CENTER USA, INC., priority 2014, dated 2017).
# Where two headings read alike, the source gives them in different places.
# Key:
# [1] = system: KMCH cells; assay: Western blot analysis of signaling and apoptosis proteins in KMCH cells; assay type: cell-based; details: for cytochrome C release from mitochondria, western blot: berberine at same concentration as NABR01
# Procedure: FIGS. 6-18 is data which illustrates the mechanism of action for NABR01. Once a mechanism of action is known, it may become possible to predict with some level of accuracy the effects a drug may have, though extensive testing would still be required. Until a mechanism is known, it is extremely difficult to predict what a particular molecule or compound may be useful for, if it is even useful at all. A western blot analysis was performed for MAP kinase signaling proteins, phospho p38, phospho JNK and phospho ERK in KMCH cells with and without NABR01 treatment.
# The cytotoxic effect of NABR01 in addition to downregulation of Bcl2, may be attributed to an increase in proapoptotic protein Bim which is specifically cleaved to generate the cytotoxic Bims-form in KMCH cells are treated with NABR01. Caspase-9 is cleaved in cells treated with NABR01 indicating an upstream activation of Caspase 3. […] Accordingly, not only does the ursodiol component of NABR01 assist in targeting, but ursodiol also increases efficacy of the compound when introduced directly to the relevant cells, a wholly unexpected effect.
# The activity of pro-inflammatory signaling pathway protein phospho STAT may also increase in NABR01 treated cells.
# [2] = system: GS-Li013 cells; assay: CCK-8 cell viability assay in GS-Li013 cells; assay type: cell-based; details: GS-Li013 (GS-cell lines), 24 hour treatment
# From the text: (§1) FIG. 2 is a set of graphs showing the ability of various molecules to kill KMCH and GS-Li013 cells, which are cholangiocarcinoma cells. The data presented in FIG. 2 is based on in-vtro studies. The y-axis of each graph represents the Cell viability percentage 205 of KMCH and GS-Li013 cells. The x-axis of each graph represents the Log[C]210. [C] refers to the concentration of the molecule tested in uM. IC50 commonly refers to the half maximal inhibitory concentration, and is used to numerically represent the efficacy of various molecules to be effective in their respective tasks. In this case, IC50 means the concentration at which half of the target cells are no longer viable. […] The unit uM is used to represent the IC50 value. uM is the same as micro molar concentration, which is 10^−6 moles/liter, a common concentration unit.
# (§2) To obtain the data in FIG. 2, Cell Counting Kit-8 (CCK-8) was used. CCK-8 is commercially available from Dojindo Molecular Technologies, Inc. CCK-8 allows sensitive colorimetric assays for the determination of cell viability in cell proliferation and cytotoxicity assays. Dojindo's highly water-soluble tetrazolium salt, used in CCK-8, is reduced by dehydrogenase activities in cells to give a yellow-color formazan dye, which is soluble in the tissue culture media. The amount of the formazan dye, generated by the activities of dehydrogenases in cells, is directly proportional to the number of living cells. The detection sensitivity of CCK-8 may be higher than the other tetrazolium salts such as MTT, XTT, MTS or WST-1. Cancerous cells in a cell culture were exposed to the either irinotecan, ursodeoxycholic acid, berberine, or NABR01, and the results were recorded. Various concentrations of each molecule were used, resulting in different amount of cell viability. Cell viability was measured according to the procedures of CCK-8, namely higher cell counts lead to higher absorption measurements, which would mean lower drug efficacy.
# [3] = system: KMCH cells; assay: CCK-8 cell viability assay in KMCH cells; assay type: cell-based
# From the text: as §1, §2
# DLD1 refers to Dukes' type C, colorectal adenocarcinoma, and NABR01 has an IC50 of 5.0 uM for DLD1. HCT2 refers to a hamster lymphoid cell line, and NABR01 has an IC50 of 6.0 uM for HCT2. […] NABR01 has an unexpectedly effective IC50 of less than 10 uM for the cell lines described above, and the related cancers.
# [4] = system: HCT2; assay: CCK-8 cell viability assay, HCT2; assay type: cell-based, hamster; details: Mesocricetus auratus, HCT2, 48 hour period
# From the text: as §2
# (§3) DLD1 refers to Dukes' type C, colorectal adenocarcinoma, and NABR01 has an IC50 of 5.0 uM for DLD1. HCT2 refers to a hamster lymphoid cell line, and NABR01 has an IC50 of 6.0 uM for HCT2. […]
# [5] = system: HCT; assay: CCK-8 cell viability assay, HCT; assay type: cell-based; details: 48 hour period
# From the text: as §2, §3
# [6] = system: HuCCT; assay: CCK-8 cell viability assay, HuCCT; assay type: cell-based; details: 48 hour period
# From the text: as §2
# (§4) As shown in FIGS. 19-20, the efficacy of NABR01 can vary greatly depending on the cancerous cell line, and as a result, NABR01 may not be effective against certain cell lines. […]
# [7] = system: KMCH tumor; assay: Tumor xenograft study in mice; assay type: in vivo
# From the text: Tumor xenografts studies in mice indicate that the tumor growth corresponding to weight and volume in NABR01 treated group of mice was reduced by approximately 45% in size when treated for 21 days.
# [8] = system: HT29; assay: CCK-8 cell viability assay, HT29; assay type: cell-based; details: Homo sapiens, HT-29, HT29, 48 hour period
# From the text: as §2, §3
# [9] = system: CCA; assay: CCK-8 cell viability assay, CCA; assay type: cell-based; details: 48 hour period
# From the text: as §2, §3
# [10] = system: MDA468; assay: CCK-8 cell viability assay, MDA468; assay type: cell-based; details: MDA468, 48 hour period
# From the text: as §2, §3
# [11] = system: PANC1; assay: CCK-8 cell viability assay, PANC1; assay type: cell-based; details: Homo sapiens, PANC-1, PANC1, 48 hour period
# From the text: as §2, §3
# [12] = system: MCF7; assay: CCK-8 cell viability assay, MCF7; assay type: cell-based; details: Homo sapiens, MCF7, 48 hour period
# From the text: as §2, §3
# [13] = system: HepG2; assay: CCK-8 cell viability assay, HepG2; assay type: cell-based; details: Homo sapiens, HepG2, 48 hour period
# From the text: as §2, §3
# [14] = system: SJSA; assay: CCK-8 cell viability assay, SJSA; assay type: cell-based; details: 48 hour period
# From the text: as §2, §4
# [15] = system: U2OS; assay: CCK-8 cell viability assay, U2OS; assay type: cell-based; details: Homo sapiens, 48 hour period
# From the text: as §2, §3
# [16] = system: PC3; assay: CCK-8 cell viability assay, PC3; assay type: cell-based; details: Homo sapiens, PC-3, PC3, 48 hour period
# From the text: as §2, §4
# [17] = system: MDA231; assay: CCK-8 cell viability assay, MDA231; assay type: cell-based; details: Homo sapiens, MDA-MB-231, MDA231, 48 hour period
# From the text: as §2, §4
# [18] = system: DLD1; assay: CCK-8 cell viability assay, DLD1; assay type: cell-based; details: Homo sapiens, DLD-1, DLD1, 48 hour period
# From the text: as §2, §3
# [19] = KMCH cells, 24 hour treatment, read-out: IC50 (cell viability)
compound,measurement,setting,value
COc1ccc2cc3[n+](cc2c1OC)CCc1cc2c(cc1-3)OCO2 [berberine],"phospho ERK (cell survival pathway), western blot",[1]; 10 uM,not observed
same,"phospho JNK (cell death signaling pathway), western blot",[1]; 10 uM,not observed
same,"phospho p38 (cell death signaling pathway), western blot",[1]; 10 uM,not observed
same,"cytochrome C release from mitochondria, western blot",[1],did not result in the release
same,IC50,[2],200 µM
same,IC50,[3]; [19],200 µM
"COc1ccc2cc3[n+](cc2c1OCCCCCCNC(=O)CC[C@@H](C)[C@H]1CC[C@H]2[C@@H]4[C@@H](O)CC5CC(O)CC[C@]5(C)[C@H]4CC[C@]12C)CCc1cc2c(cc1-3)OCO2 (stereo in doubt) [NABR01, berberine-ursodeoxycholic acid conjugate]",IC50,[4],6 µM
same,IC50,[5],3.9 µM
same,"phospho PTEN, western blot",[1],remain unchanged
same,pro-apoptotic protein Noxa,[1],increase
same,"PARP activation by cleavage, western blot",[1]; 10 uM,activated
same,"anti-apoptotic protein Bcl2, western blot",[1]; 10 uM,down regulated
same,"phospho ERK (cell survival pathway), western blot",[1]; 10 uM,downregulated
same,"phospho JNK (cell death signaling pathway), western blot",[1]; 10 uM,increased
same,"phospho p38 (cell death signaling pathway), western blot",[1]; 10 uM,increased
same,"AKT signaling pathway, western blot","[1]; 10 uM, 16 hours",downregulated
same,"phosphor-AKT pathway, western blot","[1]; 10 uM, 16 hours",downregulated
same,"proapoptotic protein Bim (cleaved to Bims-form), western blot","[1]; 10 uM, 24 hours",increase
same,"Caspase-9 cleavage, western blot","[1]; 10 uM, 48 hours",cleaved
same,"Phospho CKH2 (DNA repair), western blot",[1]; 16 hours,increased activity
same,"Total P53 levels, western blot",[1]; 16 hours,downregulated
same,"phospho STAT (pro-inflammatory signaling), western blot",[1]; 16 hours,increase
same,"phosphoATM (DNA repair), western blot",[1]; 16 hours,increased activity
same,"phospho 4EBP1, western blot",[1]; 24 hours,not significantly altered
same,"phospho EF2k, western blot",[1]; 24 hours,not significantly altered
same,"phospho eIF4E, western blot",[1]; 24 hours,not significantly altered
same,"phospho p70S6 kinase, western blot",[1]; 24 hours,not significantly altered
same,"phosphor mTOR 52481 pathway, western blot",[1]; 24 hours,downregulated
same,"cytochrome C release from mitochondria, western blot",[1],released from mitochondria
same,Bcl2 protein levels,[1]; by 24hrs of exposure,significant decrease
same,IC50,[6],15 µM
same,IC50,[2],15 µM
same,tumor weight inhibition,"[7]; mice with a KMCH tumor, 4 mg/kg",43.46%
same,tumor growth (weight and volume) reduction in size,"[7]; mice, tumor xenografts, treated for 21 days",approximately 45%
same,IC50,[8],5.2 µM
same,IC50,[9],4.8 µM
same,IC50,[10],2.1 µM
same,IC50,[11],3.3 µM
same,IC50,[12],9.2 µM
same,IC50,[3]; [19],15 µM
same,IC50,"[3]; KMCH, 48 hour period, read-out: IC50",2.9 µM
same,IC50,[13],5.4 µM
same,IC50,[14],14 µM
same,IC50,[15],4.3 µM
same,IC50,[16],16 µM
same,IC50,[17],36 µM
same,IC50,[18],5 µM
C[C@H](CCC(=O)O)[C@H]1CC[C@H]2[C@@H]3[C@@H](O)C[C@@H]4C[C@H](O)CC[C@]4(C)[C@H]3CC[C@]12C [ursodeoxycholic acid],IC50 (cell viability),[2],no IC50
same,IC50 (cell viability),"[3]; KMCH cells, 24 hour treatment",no IC50
CCc1c2c(nc3ccc(OC(=O)N4CCC(N5CCCCC5)CC4)cc13)-c1cc3c(c(=O)n1C2)COC(=O)[C@]3(O)CC [irinotecan],IC50,[2],90 µM
same,IC50,[3]; [19],95 µM
